Counter-ions that a name gives are not always drawn.
Assays:
Format in all cases: biochemical
[1] = molecular target: human PLK4 (Homo sapiens (Human), UniProt O00444); test: PLK4 inhibition assay (indirect ELISA); details: read-out: PLK4 IC50 Ranges
[2] = molecular target: Aurora B (Homo sapiens (Human), UniProt Q96GD4); test: Aurora B inhibition assay (Z-Lyte); details: read-out: Aurora B IC50 Ranges
Experimental: Aurora B inhibition was determined using the Z-Lyte assay kit from Invitrogen. […] The % inhibition values were determined according to the manufacturer's directions and IC50 values were obtained using a non-linear 4 point logistic curve fit (XLfit4, IDBS)

[3] = molecular target: FLT3 (Homo sapiens (Human), UniProt P36888); test: FLT3 inhibition assay (Z-Lyte); details: read-out: Flt3 IC50 Ranges
Chain of FLT3 (P36888 27-993): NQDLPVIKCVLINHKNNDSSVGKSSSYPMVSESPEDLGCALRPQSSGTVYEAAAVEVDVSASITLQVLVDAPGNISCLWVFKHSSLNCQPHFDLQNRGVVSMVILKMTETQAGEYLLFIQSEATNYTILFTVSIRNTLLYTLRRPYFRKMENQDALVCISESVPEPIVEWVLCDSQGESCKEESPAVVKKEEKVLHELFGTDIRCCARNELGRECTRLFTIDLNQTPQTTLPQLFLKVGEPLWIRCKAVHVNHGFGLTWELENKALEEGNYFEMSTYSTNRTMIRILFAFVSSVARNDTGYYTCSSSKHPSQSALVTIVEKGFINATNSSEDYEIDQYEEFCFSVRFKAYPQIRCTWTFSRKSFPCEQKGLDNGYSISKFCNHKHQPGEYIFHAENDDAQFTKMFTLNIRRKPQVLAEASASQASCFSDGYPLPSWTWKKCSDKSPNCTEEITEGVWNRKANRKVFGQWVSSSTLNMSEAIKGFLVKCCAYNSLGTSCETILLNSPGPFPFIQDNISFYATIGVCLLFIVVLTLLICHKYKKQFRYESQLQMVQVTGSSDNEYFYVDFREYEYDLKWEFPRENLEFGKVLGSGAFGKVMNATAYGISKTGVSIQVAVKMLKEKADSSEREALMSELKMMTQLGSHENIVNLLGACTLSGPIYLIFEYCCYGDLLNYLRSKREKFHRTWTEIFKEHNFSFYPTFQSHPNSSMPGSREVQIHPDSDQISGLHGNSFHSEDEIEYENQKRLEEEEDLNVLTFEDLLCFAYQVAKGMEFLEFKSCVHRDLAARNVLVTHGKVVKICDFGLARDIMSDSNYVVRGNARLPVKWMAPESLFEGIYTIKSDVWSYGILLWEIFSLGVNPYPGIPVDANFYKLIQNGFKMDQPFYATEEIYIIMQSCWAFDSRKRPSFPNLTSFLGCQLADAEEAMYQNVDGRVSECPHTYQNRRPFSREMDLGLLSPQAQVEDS
Experimental: The enzymatic activity of FLT3 was determined using the Z-Lyte assay kit from Invitrogen (Invitrogen cat #PV3191). […] The % inhibition values were determined according to the manufacturer's directions and IC50 values were obtained using a non-linear 4 point logistic curve fit (XLfit4, IDBS).

Chain of human PLK4 (O00444 1-391): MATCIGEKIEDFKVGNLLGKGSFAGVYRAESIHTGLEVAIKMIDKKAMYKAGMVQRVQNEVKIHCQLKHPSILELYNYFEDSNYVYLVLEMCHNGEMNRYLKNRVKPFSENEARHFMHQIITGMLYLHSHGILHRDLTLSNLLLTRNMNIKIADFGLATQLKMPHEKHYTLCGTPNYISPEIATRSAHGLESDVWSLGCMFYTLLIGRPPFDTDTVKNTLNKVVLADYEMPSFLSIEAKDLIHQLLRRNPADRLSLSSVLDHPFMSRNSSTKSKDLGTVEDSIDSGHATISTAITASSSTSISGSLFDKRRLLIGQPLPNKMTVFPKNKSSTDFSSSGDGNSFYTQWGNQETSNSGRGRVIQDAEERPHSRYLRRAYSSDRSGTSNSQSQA
Chain of Aurora B (Q96GD4 whole entry): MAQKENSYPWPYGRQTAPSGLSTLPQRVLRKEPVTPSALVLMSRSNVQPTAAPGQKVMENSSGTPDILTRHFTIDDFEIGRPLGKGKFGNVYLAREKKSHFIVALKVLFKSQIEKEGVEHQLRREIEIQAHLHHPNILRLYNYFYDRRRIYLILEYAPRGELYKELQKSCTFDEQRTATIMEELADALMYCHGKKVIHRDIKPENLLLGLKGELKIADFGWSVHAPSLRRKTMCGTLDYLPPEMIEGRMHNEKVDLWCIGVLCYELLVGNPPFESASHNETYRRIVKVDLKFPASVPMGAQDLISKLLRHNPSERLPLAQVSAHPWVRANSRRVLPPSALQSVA

Row | Structure (SMILES) | IC50 [1] [nM] | IC50 [2] [nM] | IC50 [3] [nM]
1 | COc1ccc2c(c1)[C@]1(C[C@H]1c1ccc3c(-c4cccc(C(=O)N5CCN(C)CC5)c4)n[nH]c3c1)C(=O)N2 (relative stereo) [Example A149, (1R*,2S*)-5′-methoxy-2-(3-(3-(4-methylpiperazine-1-carbonyl)phenyl)-1H-indazol-6-yl)spiro[cyclopropane-1,3′-indolin]-2′-one 2,2,2-trifluoroacetate] | < 100 | > 1000 | > 1000
2 | COc1ccc2c(c1)[C@@]1(C[C@@H]1c1ccc3c(-c4ccc(N5CCN(C)CC5)nc4)n[nH]c3c1)C(=O)N2 (stereo in doubt) [Example A16, (1S,2R)-5′-methoxy-2-(3-(6-(4-methylpiperazin-1-yl)pyridin-3-yl)-1H-indazol-6-yl)spiro[cyclopropane-1,3′-indolin]-2′-one] | < 100 | < 100 | < 100
3 | COc1ccc2c(c1)[C@]1(C[C@H]1c1ccc3c(-c4ccc5c(c4)CNCC5)n[nH]c3c1)C(=O)N2 [Example A71, (1R,2S)-5′-methoxy-2-(3-(1,2,3,4-tetrahydroisoquinolin-7-yl)-1H-indazol-6-yl)spiro[cyclopropane-1,3′-indolin]-2′-one 2,2,2-trifluoroacetate salt] | < 100 | < 100 | 100 to 1000
4 | CCN1CCN(c2ccc(-c3n[nH]c4cc([C@@H]5C[C@@]56C(=O)Nc5ccc(OC)cc56)ccc34)cc2)CC1 [Example A99, (1R,2S)-2-(3-(4-(4-ethylpiperazin-1-yl)phenyl)-1H-indazol-6-yl)-5′-methoxyspiro[cyclopropane-1,3′-indolin]-2′-one 2,2,2-trifluoroacetate] | < 100 | < 100 | < 100
5 | COc1ccc2c(c1)[C@]1(C[C@H]1c1ccc3c(/C=C/c4ccc(CN5CC[C@@H](F)C5)cc4)n[nH]c3c1)C(=O)N2 [Example A112, (1R,2S)-(E)-2-(3-(4-(((R)-3-fluoropyrrolidin-1-yl)methyl)styryl)-1H-indazol-6-yl)-5′-methoxyspiro[cyclopropane-1,3′-indolin]-2′-one 2,2,2-trifluoroacetate] | < 100 | < 100 | 100 to 1000
6 | COc1ccc2c(c1)[C@]1(C[C@H]1c1ccc3c(-c4ccc(N5C[C@@H](C)N[C@@H](C)C5)cc4)n[nH]c3c1)C(=O)N2 [Example A126, (1R,2S)-2-(3-(4-(cis-3,5-dimethylpiperazin-1-yl)phenyl)-1H-indazol-6-yl)-5′-methoxyspiro[cyclopropane-1,3′-indolin]-2′-one 2,2,2-trifluoroacetate] | < 100 | < 100 | 100 to 1000
7 | COc1ccc2c(c1)[C@]1(C[C@H]1c1ccc3c(-c4ccc(N(C)CCN(C)C)cc4)n[nH]c3c1)C(=O)N2 [Example A129, (1R,2S)-2-(3-(4-((2-(dimethylamino)ethyl)(methyl)amino)phenyl)-1H-indazol-6-yl)-5′-methoxyspiro[cyclopropane-1,3′-indolin]-2′-one 2,2,2-trifluoroacetate] | < 100 | < 100 | 100 to 1000
8 | COCCN1C(=O)[C@@]2(C[C@H]2c2ccc3c(/C=C/c4ccc(CN(C)C)cc4)n[nH]c3c2)c2ccccc21 [Example A131, (1R,2S)-(E)-2-(3-(4-((dimethylamino)methyl)styryl)-1H-indazol-6-yl)-1′-(2-methoxyethyl)spiro[cyclopropane-1,3′-indolin]-2′-one 2,2,2-trifluoroacetate] | < 100 | < 100 | > 1000
9 | COc1ccc2c(c1)[C@]1(C[C@H]1c1ccc3c(/C=C/c4ccc(N5CCN(C)CC5)cc4)n[nH]c3c1)C(=O)N2 [Example A175, (1R,2S)-(E)-5′-methoxy-2-(3-(4-(4-methylpiperazin-1-yl)styryl)-1H-indazol-6-yl)spiro[cyclopropane-1,3′-indolin]-2′-one 2,2,2-trifluoroacetate] | < 100 | < 100 | < 100
10 | COc1ccc2c(c1)[C@]1(C[C@H]1c1ccc3c(-c4ccc(N5CCN(C6CCCC6)CC5)cc4)n[nH]c3c1)C(=O)N2 [Example A192, (1R,2S)-2-(3-(4-(4-cyclopentylpiperazin-1-yl)phenyl)-1H-indazol-6-yl)-5′-methoxyspiro[cyclopropane-1,3′-indolin]-2′-one 2,2,2-trifluoroacetate] | < 100 | < 100 | 100 to 1000

Reference: patent US9907800B2, “Kinase inhibitors and method of treating cancer” (University Health Network, priority 2010, dated 2018)
